Reference: article PMC9769694, “Discovery of Two Inhibitors of the Type IV Pilus Assembly ATPase PilB as Potential Antivirulence Compounds” (Microbiology Spectrum, 2022)

Columns and labels:
[1] = system: A. nosocomialis twitching motility; experiment: Twitching motility, crystal violet stained twitching area; assay type: cell-based, Acinetobacter nosocomialis; conditions: WT M2 strain; for effect on twitching of the WT strain at 128 μM: compared with ΔpilA; for concentration significantly reducing twitching: P < 0.05
From the text: The inhibitors may thus interact with conserved features of the PilB ATPase family. A. nosocomialis PilB ([19]), whose N terminus is not similar to the MshEN domain (data not shown), shares ~53% identity and ~74% homology with MxPilB and MC3PilB in the ATPase domain (Fig. S1). We analyzed whether benserazide and levodopa could impact the T4P-powered twitching motility ([19], [44]) of A. nosocomialis (Fig. 7), an opportunistic pathogen in the Acinetobacter calcoaceticus-Acinetobacter baumannii (ACB) complex ([45]). As shown in Fig. 7A and B and Fig. S7, benserazide and levodopa impede the twitching motility of WT A. nosocomialis in a concentration-dependent manner.
FIG 7 Benserazide and levodopa inhibit Acinetobacter nosocomialis twitching motility and biofilm formation. (A and B) Twitching motility is correlated with the twitching area (cm^2) of the A. nosocomialis wild-type (WT) strain in the presence of (A) benserazide or (B) levodopa, with the control (no inhibitor) normalized to 1. Data are from 3 independent experiments, each performed in triplicates and represented by dots of the same color. (C and D) Biofilms formed by A. nosocomialis with (C) benserazide or (D) levodopa were analyzed by a microplate assay with crystal violet (CV) staining. Results from three independent experiments, each performed in quadruplicates and represented by dots of the same color, are shown. Horizontal lines indicate overall averages, and asterisks (*) signify that values at the indicated concentration are statistically different from those of the control (P < 0.05).
The A. nosocomialis wild-type M2 strain and an isogenic pilA deletion (ΔpilA) mutant ([19], [46]) were used in this study. They were grown and maintained using MacConkey medium at 37°C. The twitching motility of the M2 strain of A. nosocomialis was analyzed with 1% crystal violet (CV) for staining, and twitching areas were used as measures of motility as previously described ([46]). These motility assays were conducted in triplicates and the stained area of the ΔpilA mutant was subtracted from that of the WT for data analysis. A. nosocomialis biofilm formation was analyzed using microplates and CV staining as previously described ([53], [54]). The biofilm assays were conducted in quadruplicate in MacConkey medium with tissue culture-treated microtiter plates (Falcon). CV absorbance (Acv) was measured at 590 nm using Infinite M200 PRO in clear polystyrene 96-well microplates (ExtraGene). Absorbance for each well was read 16 times using Multiple Reads with the average as the final Acv value. Readings from control wells without bacteria were subtracted for normalization. Statistical differences were determined using a Student’s t test.

CtPilBΔN = biological target: T1, CtPilBΔN (Chloracidobacterium thermophilum, UniProt G2LDI3); experiment: ATPase assay of truncated CtPilB variant without N-terminal MshEN domain; assay type: biochemical; conditions: read-out: IC50, ATPase activity of PilBΔN
T1 sequence (G2LDI3 140-614): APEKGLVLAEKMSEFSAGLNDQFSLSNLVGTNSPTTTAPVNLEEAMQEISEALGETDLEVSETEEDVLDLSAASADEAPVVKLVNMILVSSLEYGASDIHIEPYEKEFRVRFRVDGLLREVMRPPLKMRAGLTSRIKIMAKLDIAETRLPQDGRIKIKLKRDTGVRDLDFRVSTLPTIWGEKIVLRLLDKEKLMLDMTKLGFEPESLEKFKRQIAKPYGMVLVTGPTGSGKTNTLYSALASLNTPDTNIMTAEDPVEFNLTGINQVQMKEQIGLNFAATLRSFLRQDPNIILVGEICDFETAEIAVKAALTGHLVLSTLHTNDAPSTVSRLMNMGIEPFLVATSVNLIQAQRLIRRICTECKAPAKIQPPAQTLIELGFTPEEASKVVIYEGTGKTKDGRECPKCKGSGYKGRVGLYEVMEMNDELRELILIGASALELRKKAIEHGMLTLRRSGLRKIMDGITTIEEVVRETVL
From the text: CtPilB, like its orthologue MshE ([35]), has a MshEN-like cyclic di-GMP-binding domain at its N terminus and a well-conserved ATPase domain at its C terminus ([28], [29]). To determine which domain the inhibitors interact with, we tested the effects of benserazide and levodopa on the ATPase activity of a truncated CtPilB variant (PilBΔN) without the N-terminal MshEN domain ([29]). […] These values are similar to those against the full-length PilB (Fig. 2).
The full-length CtPilB and the CtPilBΔN variant (with the first 139 residues at the N terminus truncated) were purified as preciously described ([29]). The HTS was conducted using 384-well microplates (Greiner, cat no. 781101). Each microwell for the screen contained a 15-μL reaction mixture consisting of 75 nM CtPilB, 0.5 mM ATP, 20 μM of a library compound, and 2% DMSO in activity buffer (50 mM N-tris(hydroxymethyl)methyl-3-aminopropanesulfonic acid [TAPS], 50 mM Tris, 75 mM KCl, 50 mM sodium acetate, 5 mM MgCl2, 50 mM ZnCl2 [pH 8.7]) ([29]). Reaction mixtures were incubated at 55°C for 10 min and transferred to ice for 5 min to stop the enzymatic reaction. […] Absorbance at 620 nm (A620) was measured using a SpectraMax M5 microplate reader at room temperature. […]
The effects of inhibitors on the ATPase activity of CtPilB and CtPilBΔN and the binding of MANT-ATP were determined as described previously ([28], [29]). […]

M. xanthus T4P assembly = experiment: T4P assembly, dot blot of T4P fractions with anti-pilin antibodies; assay type: cell-based, Myxococcus xanthus; conditions: strain YZ603 (ΔdifE), 16-128 μM tested, P < 0.05
Method: Alternatively, they may inhibit other processes such as pilin production or T4P retraction. […] Briefly, pre-existing pili were sheared off and separated from cells by vortexing and centrifugation. These shaved or unpiliated cells were allowed to assemble new T4P in the presence or absence of a PilB inhibitor. T4P fractions were prepared and analyzed by dot blotting with anti-pilin antibodies as a measure of T4P levels ([28]). […] As such, the T4P fraction represents the level of T4P assembly without complication from T4P retraction ([28]).
Piliation levels of the M. xanthus strain YZ603 (ΔdifE) ([52]) were analyzed by dot-blotting with anti-PilA antibodies as previously described ([28]). This study included a fraction representing the “Basal” T4P levels for a given treatment. This is the T4P fraction from sheared cells mixed with an inhibitor and pre-equilibrated on ice for 10 min before the cells were incubated at 32°C for 20 min to allow T4P regrowth or assembly. These fractions were used as controls and subtracted as the baseline in data analysis.

Row | SMILES | effect on twitching of the WT strain at 128 μM [1] | concentration significantly reducing twitching [1] | IC50 (CtPilBΔN) | concentration giving statistically significant decrease in T4P assembly (M. xanthus T4P assembly)
1 | NC(CO)C(=O)NNCc1ccc(O)c(O)c1O (centres unmarked) [benserazide] | eliminated twitching | ≥ 32 µM | 2.2 ± 0.4 µM | ≥ 16 µM
2 | N[C@@H](Cc1ccc(O)c(O)c1)C(=O)O [levodopa, 3,4-dihydroxyphenylalanine] | eliminated twitching | ≥ 32 µM | 76.2 ± 9.2 µM | ≥ 32 µM
